From ChEMBL document CHEMBL1155907, “Structure-activity relationship of flavonoids as influenza virus neuraminidase inhibitors and their in vitro anti-viral activities” (Bioorg Med Chem, 2008)

Legend:
[1] = target: T1, Neuraminidase (Influenza A virus, UniProt B4URF0)
[2] = target: T1, Neuraminidase; set-up: species or system Influenza B virus
[3] = target: T1, Neuraminidase; set-up: species or system Influenza A virus (A/Puerto Rico/8/1934(H1N1))
[4] = Cytotoxicity against MDCK cells by MTT assay; type: cell-based, Canis lupus familiaris; conditions: dog
[5] = system: Influenza A virus; assay: Antiviral activity against Influenza A virus Jinan/15/90 H3N2 assessed as reduction of virus-induced cytopathic effect; type: functional, organism-based
[6] = Cytotoxicity against MDCK cells assessed as maximal non-cytotoxic concentration by MTT assay; type: cell-based, Canis lupus familiaris; conditions: dog, read-out: MNCC
[7] = Selectivity index, ratio of CC50 to MDCK cells to IC50 to Influenza A Jinan/15/90 H3N2 virus; type: functional

T1 sequence (B4URF0 whole entry): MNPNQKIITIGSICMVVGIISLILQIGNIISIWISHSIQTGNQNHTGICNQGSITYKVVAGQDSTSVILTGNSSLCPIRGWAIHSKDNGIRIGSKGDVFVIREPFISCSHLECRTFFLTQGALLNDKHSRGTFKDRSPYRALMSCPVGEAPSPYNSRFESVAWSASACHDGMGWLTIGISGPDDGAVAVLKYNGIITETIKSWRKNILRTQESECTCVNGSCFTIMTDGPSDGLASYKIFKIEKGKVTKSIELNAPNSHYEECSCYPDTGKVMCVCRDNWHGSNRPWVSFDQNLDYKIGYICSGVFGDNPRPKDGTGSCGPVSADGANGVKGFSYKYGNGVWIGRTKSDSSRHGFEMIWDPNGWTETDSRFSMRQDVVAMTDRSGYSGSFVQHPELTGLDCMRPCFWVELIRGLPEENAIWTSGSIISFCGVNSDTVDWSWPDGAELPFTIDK

In the case of `O=c1c(-c2ccc(O)cc2)coc2cc(O)cc(O)c12` [GENISTEIN], the IC50 [1] is reported as 134 µM, the IC50 [2] is reported as 83.3 µM and the IC50 [3] is reported as 77.1 µM.

`O=C1C[C@@H](c2ccc(O[C@@H]3O[C@H](CO)[C@@H](O)[C@H](O)[C@H]3O)cc2)Oc2cc(O)ccc21` [LIQUIRITIN] gave an IC50 [1] of over 100 µM, an IC50 [2] of over 100 µM and an IC50 [3] of over 100 µM.

With `O=c1cc(-c2ccc(O)c(O)c2)oc2cc(O[C@@H]3O[C@H](CO)[C@@H](O)[C@H](O)[C@H]3O)cc(O)c12` [GALUTEOLIN] the CC50 [4] was over 1120 µM, the IC50 [1] was 52.2 µM and the IC50 [5] was over 1120 µM. It also gave an MNTC [6] of over 1120 µM, an IC50 [2] of 58.6 µM and an IC50 [3] of 47.4 µM.

Molecule `O=c1c(-c2ccc(O[C@@H]3O[C@H](CO)[C@@H](O)[C@H](O)[C@H]3O)cc2)coc2cc(O)cc(O)c12` [SOPHORICOSIDE] has an IC50 [1] of over 100 µM, an IC50 [2] of over 100 µM and an IC50 [3] of over 100 µM.

For `NC(=O)c1ncn([C@@H]2O[C@H](CO)[C@@H](O)[C@H]2O)n1` [RIBAVIRIN], the CC50 [4] was over 512 µM, the IC50 [5] was 25.6 µM and the “Ratio CC50/IC50” value [7] was over 19.98.

In the case of `O=C1/C(=C\c2ccc(O)cc2)Oc2cc(O)ccc21`, the CC50 [4] is reported as 152 µM, the IC50 [1] is reported as 22.1 µM and the IC50 [5] is reported as 15.7 µM. For the same molecule, the MNTC [6] was 87.5 µM, the “Ratio CC50/IC50” value [7] was 9.64 and the IC50 [2] was 22.9 µM. For the same molecule, the IC50 [3] was 22 µM.

In the case of `Oc1cc(O)c2c(c1)O[C@H](c1ccc(O)c(O)c1)[C@@H](O)C2` [CATECHIN], the IC50 [1] is reported as over 100 µM, the IC50 [2] is reported as over 100 µM and the IC50 [3] is reported as over 100 µM.

Work on `Oc1cc(O)c2c(c1)O[C@@H](c1ccc(O)c(O)c1)[C@@H](O)C2` [(+)-EPICATECHIN] yielded an IC50 [1] of over 100 µM, an IC50 [2] of over 100 µM and an IC50 [3] of over 100 µM.

`O=c1c(-c2ccc(O)cc2)coc2cc(O)ccc12` [DAIDZEIN] gave a CC50 [4] of over 787 µM, an IC50 [1] of 26.6 µM and an IC50 [5] of over 787 µM. For the same molecule, the MNTC [6] was over 787 µM, the IC50 [2] was 46.8 µM and the IC50 [3] was 37.1 µM.

For `O=c1cc(-c2ccccc2)oc2cc(O)cc(O)c12` [CHRYSIN], the IC50 [1] was 33.4 µM, the IC50 [2] was 52.9 µM and the IC50 [3] was 45.7 µM.

Work on `O=c1cc(-c2ccc(O)cc2)oc2c([C@@H]3O[C@H](CO)[C@@H](O)[C@H](O)[C@H]3O)c(O)cc(O)c12` [VITEXIN] yielded an IC50 [1] of 45.1 µM, an IC50 [2] of 49.6 µM and an IC50 [3] of 46.5 µM.

With `O=C1/C(=C\c2ccc(O)cc2)Oc2cc(O)cc(O)c21` the CC50 [4] was over 741 µM, the IC50 [1] was 22.3 µM and the IC50 [5] was over 741 µM. For the same molecule, the MNTC [6] was over 741 µM, the IC50 [2] was 25.4 µM and the IC50 [3] was 25.6 µM.

With `CCC(CC)O[C@@H]1C=C(C(=O)O)C[C@H](N)[C@H]1NC(C)=O` [OSELTAMIVIR CARBOXYLATE] the CC50 [4] was 17.1 µM, the IC50 [5] was 0.15 µM and the MNTC [6] was 1.02 µM.

For `O=c1c(O)c(-c2cc(O)c(O)c(O)c2)oc2cc(O)cc(O)c12` [MYRICETIN], the IC50 [1] was 46.2 µM, the IC50 [2] was 75.4 µM and the IC50 [3] was 82.6 µM.

Work on `O=C1/C(=C/c2ccc(O)c(O)c2)Oc2cc(O)ccc21` [SULFURETIN] yielded a CC50 [4] of 27.4 µM, an IC50 [1] of 51.2 µM and an IC50 [5] of over 9.15 µM. For the same molecule, the MNTC [6] was 9.15 µM, the IC50 [2] was 36.2 µM and the IC50 [3] was 29.6 µM.

`O=c1cc(-c2ccc(O)c(O)c2)oc2cc(O)cc(O)c12` [LUTEOLIN] gave a CC50 [4] of 12.4 µM, an IC50 [1] of 32.6 µM and an IC50 [5] of 6.82 µM. For the same molecule, the MNTC [6] was 7.2 µM, the “Ratio CC50/IC50” value [7] was 1.82 and the IC50 [2] was 53.3 µM. The IC50 [3] was 33.7 µM.

In the case of `O=c1c(O)c(-c2ccc(O)cc2)oc2cc(O)cc(O)c12` [KAEMPFEROL], the IC50 [1] is reported as 38.1 µM, the IC50 [2] is reported as 46.4 µM and the IC50 [3] is reported as 58.6 µM.

`O=C1C[C@@H](c2ccc(O)cc2)Oc2cc(O)cc(O)c21` [NARINGENIN] gave an IC50 [1] of over 100 µM, an IC50 [2] of over 100 µM and an IC50 [3] of over 100 µM.

Work on `O=c1cc(-c2ccc(O)cc2)oc2cc(O)cc(O)c12` [APIGENIN] yielded a CC50 [4] of 39.6 µM, an IC50 [1] of 28.9 µM and an IC50 [5] of 4.74 µM. The MNTC [6] was 7.63 µM, the “Ratio CC50/IC50” value [7] was 8.35 and the IC50 [2] was 45.7 µM. The IC50 [3] was 31.6 µM.

Molecule `O=C(O)[C@H]1O[C@@H](Oc2cc3oc(-c4ccc(O)cc4)cc(=O)c3c(O)c2O)[C@H](O)[C@@H](O)[C@@H]1O` [SCUTELLARIN] has an IC50 [1] of 47.3 µM, an IC50 [2] of 59.9 µM and an IC50 [3] of 50.6 µM.

For `COc1cc(O)c2c(=O)c(O)c(-c3ccc(O)cc3)oc2c1` [RHAMNOCITRIN], the IC50 [1] was 83.9 µM, the IC50 [2] was 62 µM and the IC50 [3] was 51.5 µM.

`O=c1c(O)c(-c2ccc(O)c(O)c2)oc2cc(O)cc(O)c12` [QUERCETIN] showed an IC50 [1] of 87.6 µM, an IC50 [2] of 67.5 µM and an IC50 [3] of 58.4 µM.

Work on `COc1c(O)cc2oc(-c3ccc(O)cc3)cc(=O)c2c1O` [HISPIDULIN] yielded a CC50 [4] of 172 µM, an IC50 [1] of 26 µM and an IC50 [5] of 24.7 µM. The MNTC [6] was 24.7 µM, the “Ratio CC50/IC50” value [7] was 6.98 and the IC50 [2] was 33.2 µM. For the same molecule, the IC50 [3] was 46.3 µM.

With `C[C@@H]1O[C@@H](OC[C@H]2O[C@@H](Oc3c(-c4ccc(O)c(O)c4)oc4cc(O)cc(O)c4c3=O)[C@H](O)[C@@H](O)[C@@H]2O)[C@H](O)[C@H](O)[C@H]1O` [RUTIN] the IC50 [1] was 87.7 µM, the IC50 [2] was over 100 µM and the IC50 [3] was 52.2 µM.

`COc1ccc([C@@H]2CC(=O)c3c(O)cc(O[C@@H]4O[C@H](CO[C@@H]5O[C@@H](C)[C@H](O)[C@@H](O)[C@H]5O)[C@@H](O)[C@H](O)[C@H]4O)cc3O2)cc1O` [HESPERIDIN] gave an IC50 [1] of over 100 µM, an IC50 [2] of over 100 µM and an IC50 [3] of over 100 µM.

Molecule `O=C1/C(=C\c2ccccc2)Oc2cc(O)ccc21` has an IC50 [1] of 73.3 µM, an IC50 [2] of 86.6 µM and an IC50 [3] of 72 µM.

`COc1ccc(-c2coc3cc(O)ccc3c2=O)cc1` [FORMONONETIN] showed an IC50 [1] of over 100 µM, an IC50 [2] of over 100 µM and an IC50 [3] of over 100 µM.
